Some test systems named below: 786-0 renal; LOX IMVI melanoma; MDA-MB-231 breast; OVCAR-3 ovarian; SF-268 CNS; SK-MEL-2 melanoma; SK-MEL-28 melanoma; SK-MEL-5 melanoma; SN12C renal; SW-620 colon.
What all share (test): NCI anticancer screen, dose series, 48 h

Where “and” joins values, the source holds several entries; their conditions need not be identical. Equal entries are not always repeated.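 Results reflect a 48-hour exposure of cells in 96-well plates to compound at five concentrations. GI50: concentration for 50% inhibition of growth. TGI: concentration producing complete growth inhibition.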

Regarding `CCCCC(OC(=O)c1ccc(N)cc1)C(=O)Nc1nc(CC(=O)OCC)cs1` (centres undefined), the GI50 is 53.6 µM in the assay with 786-0 renal; 39 µM with LOX IMVI melanoma; 28.1 µM in the assay on MDA-MB-231 breast; 23.5 µM with OVCAR-3 ovarian; 43.5 µM in the assay on SF-268 CNS; 25.7 µM in the assay on SK-MEL-2 melanoma. Also, the GI50 is 42.2 µM in the assay with SK-MEL-28 melanoma, 17.8 µM in the assay with SK-MEL-5 melanoma, 41.6 µM in the assay on SN12C renal and 48 µM in the assay with SW-620 colon. Further, the TGI in the assay with 786-0 renal was > 100 µM; in the assay on LOX IMVI melanoma, > 100 µM; in the assay with MDA-MB-231 breast it was > 100 µM; in the assay with OVCAR-3 ovarian, 82 µM; in the assay with SF-268 CNS, > 100 µM; in the assay on SK-MEL-2 melanoma, 77.4 µM. In addition, the TGI in the assay with SK-MEL-28 melanoma was > 100 µM; with SK-MEL-5 melanoma, 34.5 µM; with SN12C renal, > 100 µM; in the assay with SW-620 colon, > 100 µM.

As for `O=C(Nc1cccc(C(F)(F)F)c1)c1ccc(NC2=C(Cl)C(=O)N(Cc3ccccc3)C2=O)cc1`, the GI50 in the assay with 786-0 renal was 12.1 µM; in the assay with LOX IMVI melanoma, 2.45 µM; in the assay with MDA-MB-231 breast, 6.53 µM; in the assay with OVCAR-3 ovarian, 2.09 µM; with SF-268 CNS it was 6.41 µM; in the assay with SK-MEL-2 melanoma it was 7.04 µM. Besides, the GI50 with SK-MEL-28 melanoma was 18.2 µM; with SK-MEL-5 melanoma, 4.07 µM; with SN12C renal, 4.4 µM; in the assay with SW-620 colon, 5.11 µM. Besides, the TGI in the assay with 786-0 renal amounted to 24.5 µM; in the assay on LOX IMVI melanoma, 6.6 µM; with MDA-MB-231 breast it was 23.9 µM; in the assay with OVCAR-3 ovarian it was 4.63 µM; in the assay with SF-268 CNS, 29.9 µM; with SK-MEL-2 melanoma, 24.2 µM. Also, the TGI with SK-MEL-28 melanoma was 36.5 µM; in the assay with SK-MEL-5 melanoma, 18.1 µM; in the assay with SN12C renal it was 20.1 µM; in the assay on SW-620 colon it was > 100 µM.

As for `CCn1c(SCC(=O)Nc2cc(C(F)(F)F)ccc2Cl)nc2ccccc2c1=O`, the GI50 in the assay on 786-0 renal was 48.6 µM; with LOX IMVI melanoma, > 100 µM; in the assay with MDA-MB-231 breast, 18.9 µM; in the assay on OVCAR-3 ovarian, 43.2 µM; in the assay on SF-268 CNS it was 41.2 µM; in the assay on SK-MEL-2 melanoma, 24.6 µM. Further, the GI50 in the assay with SK-MEL-28 melanoma is 53.9 µM; in the assay on SK-MEL-5 melanoma, 25.1 µM; with SN12C renal it was 76.9 µM; with SW-620 colon, 53.4 µM. Further, the TGI in the assay with 786-0 renal is > 100 µM; in the assay on LOX IMVI melanoma, > 100 µM; in the assay on MDA-MB-231 breast it was > 100 µM; with OVCAR-3 ovarian it was > 100 µM; with SF-268 CNS it was > 100 µM; with SK-MEL-2 melanoma it was 72.3 µM. Besides, the TGI with SK-MEL-28 melanoma, with SK-MEL-5 melanoma, in the assay on SN12C renal and with SW-620 colon was > 100 µM in each case.

For the molecule `CC1(C)CCc2c(c(N=Nc3ccccc3F)c3ccccc3c2O)O1`, the GI50 with 786-0 renal was 26.1 µM; with LOX IMVI melanoma it was 20.9 µM; in the assay with MDA-MB-231 breast it was 17.6 µM; in the assay on OVCAR-3 ovarian, 20.5 µM; with SF-268 CNS it was 76.3 µM; in the assay on SK-MEL-2 melanoma it was > 100 µM. Besides, the GI50 in the assay on SK-MEL-28 melanoma is > 100 µM; in the assay on SK-MEL-5 melanoma, 52.6 µM; with SN12C renal, 22.7 µM; with SW-620 colon it was 32.8 µM. Further, the TGI with 786-0 renal is 60.3 µM; in the assay with LOX IMVI melanoma it was 40.9 µM; with MDA-MB-231 breast, 37.9 µM; in the assay on OVCAR-3 ovarian it was 51.2 µM; in the assay with SF-268 CNS it was > 100 µM; with SK-MEL-2 melanoma it was > 100 µM. The TGI with SK-MEL-28 melanoma is > 100 µM; with SK-MEL-5 melanoma it was > 100 µM; in the assay on SN12C renal, 53.1 µM; with SW-620 colon it was > 100 µM.

Regarding `O=C1OC(c2ccc(Cl)cc2)=N/C1=C\c1ccccc1`, the TGI in the assay on 786-0 renal, in the assay with LOX IMVI melanoma, in the assay with MDA-MB-231 breast, in the assay on OVCAR-3 ovarian, in the assay on SF-268 CNS and in the assay on SK-MEL-2 melanoma was > 100 µM in each case. Moreover, the TGI in the assay with SK-MEL-28 melanoma, in the assay on SK-MEL-5 melanoma, in the assay with SN12C renal and in the assay with SW-620 colon was > 100 µM in each case.

For the molecule `CC1=C2[C@@H](CC1)[C@]1(C)O[C@@](C(C)C)(C[C@H]1OC(=O)CO)[C@H]2OC(=O)CCCc1ccccc1`, the GI50 in the assay with 786-0 renal was 13.1 µM; with LOX IMVI melanoma, 5.88 µM; with MDA-MB-231 breast it was 12.9 µM; in the assay with OVCAR-3 ovarian it was 6.94 µM; in the assay on SF-268 CNS, 11.5 µM; in the assay with SK-MEL-2 melanoma it was 11.7 µM. Further, the GI50 was 13.9 µM in the assay on SK-MEL-28 melanoma, 7.91 µM in the assay with SK-MEL-5 melanoma, 4.52 µM in the assay with SN12C renal and 11 µM in the assay on SW-620 colon. Besides, the TGI with 786-0 renal is 28.7 µM; in the assay on LOX IMVI melanoma, 18.5 µM; in the assay with MDA-MB-231 breast it was 31.8 µM; in the assay with OVCAR-3 ovarian, 22.5 µM; in the assay with SF-268 CNS, 32.6 µM; with SK-MEL-2 melanoma, 27.2 µM. Also, the TGI was 26.8 µM in the assay with SK-MEL-28 melanoma, 20.3 µM in the assay with SK-MEL-5 melanoma, 18 µM with SN12C renal and 25.4 µM with SW-620 colon.

`CCN(CCO)CCCC(C)Nc1ccnc2cc(Cl)ccc12` (centres undefined): the GI50 in the assay on 786-0 renal, in the assay on LOX IMVI melanoma, in the assay with MDA-MB-231 breast, with OVCAR-3 ovarian, in the assay on SF-268 CNS and with SK-MEL-2 melanoma was > 100 µM throughout. The GI50 with SK-MEL-28 melanoma, in the assay with SK-MEL-5 melanoma, in the assay with SN12C renal and with SW-620 colon was > 100 µM each time. Besides, the TGI in the assay with 786-0 renal, in the assay with LOX IMVI melanoma, in the assay with MDA-MB-231 breast, in the assay on OVCAR-3 ovarian, in the assay with SF-268 CNS and in the assay on SK-MEL-2 melanoma was > 100 µM throughout. Also, the TGI in the assay on SK-MEL-28 melanoma, with SK-MEL-5 melanoma, in the assay on SN12C renal and with SW-620 colon was > 100 µM each time.

Regarding `CC1OC(CC(=O)O)Cc2c1c(O)c1c(O)cc(-c3cc(=O)c4c(=O)c5c(c(=O)c=4c3=O)CC(CC(=O)O)OC5C)c(O)c1c2O` (centres undefined), the GI50 in the assay with 786-0 renal is 32.1 µM; with MDA-MB-231 breast, 29.4 µM; in the assay with OVCAR-3 ovarian, 37 µM; in the assay with SF-268 CNS, 47.8 µM; in the assay on SK-MEL-2 melanoma, 27.7 µM; in the assay with SK-MEL-28 melanoma it was 79.5 µM. The GI50 in the assay with SK-MEL-5 melanoma was 60.9 µM; in the assay on SN12C renal, 29.2 µM; in the assay on SW-620 colon it was 22 µM. Moreover, the TGI in the assay with 786-0 renal is 46.7 µM; in the assay with LOX IMVI melanoma, 36.5 µM; in the assay with MDA-MB-231 breast, 64.9 µM; in the assay with OVCAR-3 ovarian, > 58.6 µM; in the assay on SF-268 CNS it was > 100 µM; in the assay on SK-MEL-2 melanoma it was 48.2 µM and 62.5 µM. Further, the TGI stood at 29.5 µM in the assay with SK-MEL-28 melanoma, 31.9 µM with SK-MEL-5 melanoma, 32 µM in the assay on SN12C renal and 22.5 µM with SW-620 colon.

(Values after PubChem BioAssay (NCI).)
